Measured values: patent US6271369A, “Chimeric molecules targeted to viral RNAs” (priority 1997, dated 2001)
“Also recorded” adds a separate entry of the source.

Assays:
[1] = system: poly(A); test: UV absorbance-temperature profile (melting) of complex with poly(A); type: physicochemical; settings: 40 mM KH2PO4 pH 7.0
Method: We also compared the melting temperature of poly (A) with the melting temperature of SEQ ID NO:1 (FIG. 4). For this experiment, 1000 μL of 3.2×10^-6 M poly(A) in KH2 PO4 buffer (pH 7.0, 40 mM) was mixed with 1000 μL of 2.9 ×10^-6 M SEQ ID NO:1 in KH2 PO4 buffer, and the resulting mixture was incubated at 4° overnight before determination of melting temperature. At/Ai refers to the ratio of absorbance (At) at a given temperature compared to the absorbance (Ai) at the initial temperature (25-30° ). No -attempt was made to determine complex stoichiometry (2- or 3-stranded). Under similar conditions, an equimolar mixture of poly(A) and oligo(dT)20 gave a complex with a Tm of 40° (data not shown).
The effect of the 2-5A moiety of SEQ ID NO:1 on the ability of the dT18 region to anneal with its complementary poly (A) sequence as determined from UV absorbance-temperature profiles is shown in FIG. 4.

[2] = system: TAR:A25 :vif RNA; test: Primer-extension analysis of TAR:A25:vif RNA cleavage products; type: biochemical, HIV-1
Method: To determine the exact sites of cleavage of the TAR:A25 :vif RNA induced by SEQ ID NO:1, a primer-extension DNA synthesis reaction was performed on the RNA cleavage products with reverse transcriptase.
A primer extension assay was used as described by Driscoll, et al. (Cell, 58:519 (1989)) except that all four dNTPs were included. DNA sequencing of plasmid pSP6/TAR:A25 :vif was with the same primer using Sequenase version 2.0 (United States Biochemical) and ^35 S-dATP. The sequence of the primer was 5'-[…]-3'(SEQ ID NO:3). Results were reproduced from two separate sets of RNA cleavage reactions.
The cleavage sites of the RNA subjected to the RNA cleavage reactions described above were determined by comparing the migration of the primer extension products and DNA sequencing products performed with the same primer annealed to the plasmid containing the TAR:A25 :vif sequence. […] Previous reports indicate that unmodified 2-sA stimulates 2-5A-dependent RNase to cleave RNA on the 3'-side of UN sequences, where N stands for any nucleotide.

[3] = system: TAR:A25 :vif RNA; test: Site-directed cleavage of TAR:A25:vif RNA in Daudi cell extract; type: biochemical, HIV-1
Excerpt: To determine the ability of the 2-5A:AS chimeric molecule SEQ ID NO:1 to induce site-directed RNA cleavage, a target RNA was constructed having an internal 3',5'-oligo(rA) tract. Hybridization between the (dT18) in SEQ ID NO:1 with the oligo(rA) in the target RNA attracts 2-5A-dependent RNase to the target RNA, resulting in a highly specific cleavage event. The experimental target, TAR:A25 :vif RNA, was produced in vitro from a pSP64-derived plasmid containing a partial cDNA for the HIV vif protein interrupted with 25 adenylyl residues. A control TAR:vif RNA was constructed with the A25 tract deleted. These RNA species, which lack 3'-poly(rA) tails, were radiolabeled at their 3'-termini with [5'-^32 p)-pCp by T4 RNA ligase and gel purified prior to the assay.
The 2-5A:AS strategy for site-directed RNA cleavage was next tested in a cell-free system consisting of a postribosomal supernatant fraction of human lymphoblastoid Daudi cells.
Daudi cell extracts prepared with dounce homogenization were made by the well known method of Wreschner, et al. in a buffer containing 40mM KCl; 10 mM HEPES pH 7.5; 2.5mM magnesium acetate; 0.5mM ATP; 2.5% glycerol and 2.0mM mercaptoethanol. The extract used in the RNA cleavage assays was the supernatant of a 100,000 ×g centrifugation of cell extract. About 100 nM radiolabeled RNA (approximately 25,000 counts/min/assay) was incubated with oligonucleotides at 30° C. in extract (10μl) supplemented with 75mM KCl in a final volume of 20 μl. Reactions were terminated and the RNA was extracted with phenollchloroform. The RNA was then ethanol precipitated and redissolved in sterile water and an equal volume of formamide gel sample buffer. Cleavage products were analyzed in 6% polyacrylamide/8M urea gels (30×40×0.04cm).
The cleavage reaction was performed after adding SEQ ID NO:l and purified radiolabeled TAR:A25 :vif RNA to the Daudi cell extract (without preannealing) followed by incubation at 30° C. In the absence of added oligonucleotide, the TAR:A25 :vif RNA was degraded with a half-life of about 90 minutes.
An experiment was conducted to analyze (A) the in vitro transcription of AccI restriction endonuclease-digested plasmids containing TAR:A25 :vif and TAR:vif sequences and (B) the specific cleavage of TAR:A25 ;vif RNA induced by SEQ ID NO:1 (100nM) in extracts of Daudi cells as a function of time. The breakdown of TAR:A25 :vif RNA (intact RNA) was proportional to the appearance of the specific cleavage product. Data was obtained by running a gel with the products of the experiment and then making an autoradiogram of the dried gel. The autoradiogram was then subjected to image analysis with a video camera (Sierra Scientific) and the QUICKCAPTURE.COPYRGT. (Marlboro, Mass.) and IMAGE.COPYRGT. computer programs run on a MACINTOSH IIci.cndot. computer. The percentage of RNA shown in FIG. 6 was based on the sum of the intact RNA and the specific RNA cleavage product.
Cleavage of TAR:A25 :vif RNA (about 100 nM) as a function of SEQ ID NO:1 concentration was also measured. The cleavage reaction was allowed to continue for 30 minutes in Daudi cell extract at 30° C. The levels of the specific cleavage products (relative peak areas) were determined from an autoradiogram as described in relation to FIG. 6 above. The results shown in FIGS. 6 and 7 were reproduced three times.

[4] = about 100 nM RNA, 30 minutes, 30° C., FIG. 7

Substance: p5'A2'(p5'A2')2 P5'A2'p1[OCH2 (CH2)2 CH2 O]4p1[OCH2 (CH2)2 CH2 O]4p5'pdT3'(p5'dt3')16 p5'dt (AAAATTTTTTTTTTTTTTTTTT; chemistry not fully specified) [SEQ ID NO:1]
- melting temperature (Tm) of complex with poly(A) [1]: approximately 38 °C
- hypochromicity on mixing with poly(A) ([1]; 3.2×10^-6 M poly(A) + 2.9×10^-6 M): 17%
- specific cleavage products / cleavage sites by primer extension [2]: induced multiple cleavages within the oligo(rA) tract
- levels of intact RNA (full-length primer extension products) ([2]; after incubation in cell-free system): greatly reduced
- incubation time for 50% breakdown to the specific cleavage product ([3]; 100 nM, Daudi extract, 30° C., FIG. 6): 20 min
- incubation time after which breakdown to cleavage product could be seen clearly ([3]; Daudi extract, 30° C.): 5 min
- specific cleavage of TAR:A25:vif RNA ([3]; Daudi extract, 30° C., 30 minutes): nearly quantitative conversion of the intact RNA to a specific cleavage product; also recorded: Specific cleavage of the substrate was observed
- lowest concentration at which cleavage reaction was observed [3, 4]: 25 nM
- optimal concentration for the cleavage reaction [3, 4]: 250 nM
- increase of rate of breakdown of TAR:A25:vif RNA ([3]; versus no added oligonucleotide (half-life about 90 minutes)): more than four-fold
